Assay results taken from publication PMC11992225, “Antibacterial compounds against non-growing and intracellular bacteria” (npj Antimicrobials and Resistance, 2025).
Like-named read-outs stand apart in the source and are kept apart here.

How the values were obtained:
[1] = system: non-growing S. aureus DSM2569; test: Dilution-regrowth assay (OD600, start-growth-time) on stationary-phase S. aureus; format: cell-based, Staphylococcus aureus; details: for Regrowth, OD600 at 6h or 8h after dilution into drug-free medium: average; for Regrowth: OD600 after dilution into drug-free medium (mean): OD600 at 6h or 8h; for OD600 at 8hr, Mean: after dilution into drug-free medium
Procedure: The cultures were grown and treated for 24 h in 1:4 CA-MHB (pH 7.4).
This approach allowed us to capture the time when cultures reached a threshold optical density (start-growth-time, SGT[15]).
The cultures were incubated for 24 h in non-baffled Erlenmeyer flasks at 37 °C with shaking at 200 rpm.
For P. aeruginosa and S. aureus, dose–response analysis was conducted in 96-well plates with a 200 μl assay volume, following the procedure used for screening assay validation experiments. […] Stock solutions were prepared and stored according to the manufacturers’ instructions, then diluted in 10% DMSO before use. Cultures were incubated for 24 h in 1:4 diluted CA-MHB medium under the same conditions used for UPEC cultivation. In preliminary experiments, each compound was tested at a concentration of 20 μM in the dilution-regrowth assay with 4 technical replicates. Regrowth was monitored using a microplate reader at 37 °C with continuous shaking, and OD600 was recorded every 20 min. The time at which OD600 exceeded the threshold of 0.12 was recorded as the Start_Growth-Time.
Statistical significance of the drug effects was assessed using a one-way ANOVA followed by Dunnett’s test, comparing each treatment to the drug-free control. Statistical significance of the differences in chemical characteristics between the hit compounds and the Prestwick library was assessed using a Mann–Whitney test. Statistical significance was set at P ≤ 0.05. A five-parameter logistic equation was used for asymmetric sigmoidal curve fitting and for EC50 and IC50 determination. The Venn diagram in Fig. 1F was prepared using BioVenn web application. Characteristics of the chemical and physical properties of Prestwick library compounds were obtained from Supplementary Table S1 from reference. Characteristics of the hit compounds not included in the Prestwick library were retrieved from the PubChem database.

[2] = system: SOS response in UPEC CFT073; test: SOS response induction analysis, pAED2 cda' promoter mScarlet-I reporter; format: cell-based, Escherichia coli; details: 20 μM; for induction of the SOS response in growing UPEC cultures: 6 h, MMC, BLE, ECH in 1:4 CA-MHB pH 7.4, PLI, SAT, EVO in LPM pH 5.5
Procedure: Since we aimed to test SOS induction in non-growing cultures, it was essential to use a reporter with no leaky expression in the stationary phase. Therefore, we constructed the plasmid pAED2, based on the low copy-number plasmid pSC101, which contains the cda’ promoter in front of the mScarlet-I-encoding reporter gene.
Overnight cultures of CFT073 harboring a reporter plasmid were grown in 3 ml of LB supplemented with 100 µg/ml carbenicillin (Cb), then diluted 1:100 into the medium used for testing. For validation of the pANO1::cda’ reporter, an overnight culture was diluted into CA-MHB (supplemented with 40 mM HEPES, pH 7.4, and 100 µg/ml Cb) and grown to an OD600 ≈ 0.5 at 37 °C with shaking at 200 rpm in an Erlenmeyer flask. […] Empty wells were filled with water. […] The experiment was performed in triplicate.
For analysis of the SOS induction by anti-cancer compounds, the overnight cultures were diluted either into 1:4 diluted CA-MHB (40 mM HEPES, pH 7.4) or LPM (30 mM MES, pH 5.5) that were supplemented with 100 µg/ml Cb. For analysis of the effect on growing bacteria, the cultures were incubated at 37 °C with shaking at 200 rpm in Erlenmeyer flasks for 90 min, to an OD600 ≈ 0.5. Then, 180 μl aliquots were transferred to 96-well plates, and 20 μl of the 200 μM drug solution was added to achieve a final concentration of 20 μM. The plates were incubated in a microplate reader (BioTek Synergy H1) at 37 °C with continuous shaking for 6 h. OD600 and mScarlet fluorescence were recorded throughout the incubation.
For analysis of the effect of anti-cancer compounds on stationary phase- and regrowing bacteria, the cultures were incubated for 24 h at 37 °C with shaking at 200 rpm in Erlenmeyer flasks. […] The samples were incubated for 24 h at 37 °C in standing 1.5 ml tubes. Before and after the drug treatment, 25 μl aliquots were taken and diluted by mixing with 175 μl PBS. OD600 and mScarlet fluorescence were recorded using a microplate reader (BioTek Synergy H1).
After the treatment, stationary-phase bacteria were harvested by centrifugation at 5000 × g for 5 min at 20 °C, washed twice with PBS, and resuspended in 475 μl PBS.

[3] = Staphylococcus aureus, DSM2569, S. aureus, regrowth delay of non-growing bacteria, 1:4 CA-MHB pH 7.4, 24 h treatment, OD600 8 h after dilution, read-out: EC50
[4] = S. aureus, regrowth delay of non-growing bacteria, 1:4 CA-MHB pH 7.4, 24 h treatment, OD600 8 h after dilution, read-out: EC50

Molecule	EC50 [1, 3] [nM]	Regrowth: OD600 after dilution into drug-free medium (mean) ([1]; S. aureus, concentration 0.1)	Regrowth: OD600 after dilution into drug-free medium (mean) ([1]; S. aureus, concentration 0.5)	Regrowth: OD600 after dilution into drug-free medium (mean) ([1]; S. aureus, concentration 2.5)	Regrowth: OD600 after dilution into drug-free medium (mean) ([1]; S. aureus, concentration 10)	EC50 [1, 4] [nM]	further results
N[C@@H]1CCCCN(c2c(F)cc3c(=O)c(C(=O)O)cn(C4CC4)c3c2Cl)C1 [Besifloxacin]	401	–	–	–	–	–	Regrowth, OD600 at 6h or 8h after dilution into drug-free medium ([1]; S. aureus, concentration 0.1): 0.576; Regrowth, OD600 at 6h or 8h after dilution into drug-free medium ([1]; S. aureus, concentration 0.5): 0.336; Regrowth, OD600 at 6h or 8h after dilution into drug-free medium ([1]; S. aureus, concentration 2.5): 0.134; Regrowth, OD600 at 6h or 8h after dilution into drug-free medium ([1]; S. aureus, concentration 10): 0.097
CO[C@H]1/C=C/O[C@@]2(C)Oc3c(C)c(O)c4c(O)c(c(/C=N/N=C/N5CCCCC5)c(O)c4c3C2=O)NC(=O)/C(C)=C\C=C\[C@H](C)[C@H](O)[C@@H](C)[C@@H](O)[C@@H](C)[C@H](OC(C)=O)[C@@H]1C [FCE-22250]	–	0.461	0.312	0.178	0.092	278	–
CO[C@H]1/C=C/O[C@@]2(C)Oc3c(C)c(O)c4c(c3C2=O)C2=NC3(CCN(CC(C)C)CC3)NC2=C(NC(=O)/C(C)=C\C=C\[C@H](C)[C@H](O)[C@@H](C)[C@@H](O)[C@@H](C)[C@H](OC(C)=O)[C@@H]1C)C4=O [Rifabutin]	32	0.129	0.135	0.130	0.096	–	–
CO[C@H]1/C=C/O[C@@]2(C)Oc3c(C)c(O)c4c(O)c(c(/C=N/N5CCN(C6CCCC6)CC5)c(O)c4c3C2=O)NC(=O)/C(C)=C\C=C\[C@H](C)[C@H](O)[C@@H](C)[C@@H](O)[C@@H](C)[C@H](OC(C)=O)[C@@H]1C [Rifapentine]	41	0.215	0.149	0.116	0.091	–	–
NC1CCN(c2nc3c(cc2F)c(=O)c(C(=O)O)cn3-c2ccc(F)cc2F)C1 (stereo not shown) [Tosufloxacin]	328	–	–	–	–	–	–
Bleomycin	–	–	–	–	–	2560	OD600 at 8hr, Mean ([1]; S. aureus, 0.1 μM): 0.622; OD600 at 8hr, Mean ([1]; S. aureus, 0.5 μM): 0.595; OD600 at 8hr, Mean ([1]; S. aureus, 2.5 μM): 0.351; OD600 at 8hr, Mean ([1]; S. aureus, 10 μM): 0.129; induction of the SOS response in growing UPEC cultures [2]: induced the SOS response
Cn1c(COP(=O)(NCCBr)NCCBr)cnc1[N+](=O)[O-] [Evofosfamide]	–	–	–	–	–	–	OD600 at 8hr, Mean ([1]; S. aureus, 0.1 μM): 0.802; OD600 at 8hr, Mean ([1]; S. aureus, 0.5 μM): 0.751; OD600 at 8hr, Mean ([1]; S. aureus, 2.5 μM): 0.502; OD600 at 8hr, Mean ([1]; S. aureus, 10 μM): 0.107; EC50 ([1]; Staphylococcus aureus, DSM2569, pH 7.4): 2660 nM; induction of the SOS response in growing UPEC cultures [2]: induced the SOS response; growth inhibition of growing UPEC ([2]; LPM pH 5.5, Fig. S7C,D): only a slight growth inhibition
N#Cc1c(N2C[C@@H]3NCCO[C@H]3C2)c(F)cc2c(=O)c(C(=O)O)cn(C3CC3)c12 [Finafloxacin]	–	–	–	–	–	4660	–
COc1c(N2C[C@@H]3CCCN[C@@H]3C2)c(F)cc2c(=O)c(C(=O)O)cn(C3CC3)c12 [Moxifloxacin]	4820	–	–	–	–	–	Regrowth, OD600 at 6h or 8h after dilution into drug-free medium ([1]; S. aureus, concentration 0.1): 0.607; Regrowth, OD600 at 6h or 8h after dilution into drug-free medium ([1]; S. aureus, concentration 0.5): 0.484; Regrowth, OD600 at 6h or 8h after dilution into drug-free medium ([1]; S. aureus, concentration 2.5): 0.330; Regrowth, OD600 at 6h or 8h after dilution into drug-free medium ([1]; S. aureus, concentration 10): 0.150
